The source of these data is US12559505B2, “IDH mutant inhibitor and use thereof” (WIGEN BIOMEDICINE TECHNOLOGY (SHANGHAI) CO., LTD., priority 2020, dated 2026).

The target in the assay is T1, IDH R132C (Homo sapiens, UniProt O75874, R132C).
T1 construct: expressed in transfected cells; host or cells: U87 cells
Put plainly: Detection of 2-HG in supernatant of U87-IDH R132C cells. The settings on record: 72 h, LC-MS-MS, vs control; for Inhibition rate of compounds on 2-HG in the supernatant of U87-IDH R132C cells, 1 nM / inhibition at 0.001 µM: 1 nM compound; for Inhibition rate of compounds on 2-HG in the supernatant of U87-IDH R132C cells, 10 nM / inhibition at 0.01 µM: 10 nM compound; for Inhibition rate of compounds on 2-HG in the supernatant of U87-IDH R132C cells, 100 nM / inhibition at 0.1 µM: 100 nM compound; for inhibition at 0.001 µM: read-out: Inhibition rate of compounds on 2-HG in the supernatant of U87-IDH R132C cells, 1 nM; for inhibition at 0.01 µM: read-out: Inhibition rate of compounds on 2-HG in the supernatant of U87-IDH R132C cells, 10 nM; for inhibition at 0.1 µM: read-out: Inhibition rate of compounds on 2-HG in the supernatant of U87-IDH R132C cells, 100 nM. The class given is cell-based. As to the method:
U87 cells overexpressing the IDH R132C mutation were seeded in a 48-well plate at 50,000 cells/well. After the cells were incubated overnight for adhesion, the supernatant was removed. The cell culture media containing serially diluted compounds were added, and the cells were incubated for 72 h. After 72 h, the cultures were collected and diluted 10-fold with water, and acetonitrile was added to extract the metabolites. The 2-HG content in the cultures was analyzed by LC-MS-MS, and the percentage inhibition of compounds on 2-HG in the supernatant was calculated as compared with the control.

By inhibition is commonly meant the relative decrease from the control value, in per cent.

Bounds are passed on as bounds.

T1 sequence (O75874 whole entry R132C): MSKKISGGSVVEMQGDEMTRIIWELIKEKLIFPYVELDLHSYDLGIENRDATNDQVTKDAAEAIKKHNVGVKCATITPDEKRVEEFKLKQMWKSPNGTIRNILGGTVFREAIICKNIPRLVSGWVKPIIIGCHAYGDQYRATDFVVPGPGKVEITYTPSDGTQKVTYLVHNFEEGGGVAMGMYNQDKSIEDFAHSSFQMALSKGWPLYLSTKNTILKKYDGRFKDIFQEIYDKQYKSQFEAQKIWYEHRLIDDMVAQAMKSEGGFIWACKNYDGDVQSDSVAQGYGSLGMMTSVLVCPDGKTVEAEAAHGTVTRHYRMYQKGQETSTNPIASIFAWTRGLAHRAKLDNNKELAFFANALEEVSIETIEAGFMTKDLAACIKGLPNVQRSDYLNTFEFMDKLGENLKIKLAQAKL

Regarding `C=CC(=O)N1CC2(CC([C@@H](CC3CCC3)c3ccc([C@H](C)Nc4ncc5c(n4)N(CC)C(=O)OC5)cc3)C2)C1` [Compound 1-1], the “Inhibition rate of compounds on 2-HG in the supernatant of U87-IDH R132C cells, 1 nM” value is “C (C represents an inhibition rate greater than 30% but less than or equal to 60%)”; the “Inhibition rate of compounds on 2-HG in the supernatant of U87-IDH R132C cells, 10 nM” value is “A (A represents an inhibition rate greater than 90%)”; the “Inhibition rate of compounds on 2-HG in the supernatant of U87-IDH R132C cells, 100 nM” value was “A (A represents an inhibition rate greater than 90%)”.

`C=CC(=O)NC1CCN(C(CC2CC2)c2ccc([C@H](C)Nc3ncc4c(n3)N(CC)C(=O)OC4)cc2)CC1` (stereo partly drawn) [Compound 11]: the inhibition at 0.001 µM is 30 to 60%, the inhibition at 0.01 µM is over 90% and the inhibition at 0.1 µM was over 90%.

With `C=CC(=O)NC1CN(C(CC2CC2)c2ccc([C@H](C)Nc3ncc4c(n3)N(CC)C(=O)OC4)cc2)C1` (stereo partly drawn) [Compound 14], the inhibition at 0.001 µM was 30 to 60%, the inhibition at 0.01 µM was over 90% and the inhibition at 0.1 µM is over 90%.

On to `C=CC(=O)N(C)C1CCN(C(CC2CC2)c2ccc([C@H](C)Nc3ncc4c(n3)N(CC)C(=O)OC4)cc2)CC1` (stereo partly drawn) [Compound 16], for which the inhibition at 0.001 µM is 30 to 60%, the inhibition at 0.01 µM lay within 60 to 90% and the inhibition at 0.1 µM was over 90%.

As for `C=CC(=O)N(C)C1CN(C(CC2CC2)c2ccc([C@H](C)Nc3ncc4c(n3)N(CC)C(=O)OC4)cc2)C1` (stereo partly drawn) [Compound 19], the inhibition at 0.001 µM was 30 to 60%, the inhibition at 0.01 µM was over 90% and the inhibition at 0.1 µM is over 90%.

Take `C=CC(=O)NC1CCN(C(CC2CC2)c2ccc([C@H](C)Nc3ncc4c(n3)N(C(C)C)C(=O)OC4)cc2)CC1` (stereo partly drawn) [Compound 22]: the inhibition at 0.001 µM is under 30%, the inhibition at 0.01 µM was in the range of 60 to 90% and the inhibition at 0.1 µM was over 90%.

With `C=CC(=O)NC1CN(C(CC2CC2)c2ccc([C@H](C)Nc3ncc4c(n3)N(C(C)C)C(=O)OC4)cc2)C1` (stereo partly drawn) [Compound 23], the inhibition at 0.001 µM fell in the range of 30 to 60%, the inhibition at 0.01 µM is 60 to 90% and the inhibition at 0.1 µM was over 90%.

`C=CC(=O)N(C)C1CCN(C(CC2CC2)c2ccc([C@H](C)Nc3ncc4c(n3)N(C(C)C)C(=O)OC4)cc2)CC1` (stereo partly drawn) [Compound 24]: the inhibition at 0.001 µM lay in the range of 30 to 60%, the inhibition at 0.01 µM is over 90% and the inhibition at 0.1 µM is over 90%.

With `C=CC(=O)N(C)C1CN(C(CC2CC2)c2ccc([C@H](C)Nc3ncc4c(n3)N(C(C)C)C(=O)OC4)cc2)C1` (stereo partly drawn) [Compound 25], the inhibition at 0.001 µM is 30 to 60%, the inhibition at 0.01 µM was over 90% and the inhibition at 0.1 µM is over 90%.

For the molecule `C=CC(=O)N1CC2(C1)CN(C(CC1CC1)c1ccc(C3(Nc4ncc5c(n4)N(CC)C(=O)OC5)CC3)cc1)C2` (stereo not drawn) [Compound 26], the inhibition at 0.001 µM lay within 30 to 60%, the inhibition at 0.01 µM was 60 to 90% and the inhibition at 0.1 µM was over 90%.

On to `C=CC(=O)NC1CCN(C(CC2CC2)c2ccc(C3(Nc4ncc5c(n4)N(CC)C(=O)OC5)CC3)cc2)CC1` (stereo not drawn) [Compound 27], for which the inhibition at 0.001 µM was in the range of 30 to 60%, the inhibition at 0.01 µM lay within 60 to 90% and the inhibition at 0.1 µM is over 90%.

Consider `C=CC(=O)NC1CN(C(CC2CC2)c2ccc(C3(Nc4ncc5c(n4)N(CC)C(=O)OC5)CC3)cc2)C1` (stereo not drawn) [Compound 28], for which the inhibition at 0.001 µM was under 30%, the inhibition at 0.01 µM was 60 to 90% and the inhibition at 0.1 µM is over 90%.

With `C=CC(=O)N(C)C1CCN(C(CC2CC2)c2ccc(C3(Nc4ncc5c(n4)N(CC)C(=O)OC5)CC3)cc2)CC1` (stereo not drawn) [Compound 29], the inhibition at 0.001 µM was under 30%, the inhibition at 0.01 µM fell in the range of 60 to 90% and the inhibition at 0.1 µM was over 90%.

Consider `C=CC(=O)N(C)C1CN(C(CC2CC2)c2ccc(C3(Nc4ncc5c(n4)N(CC)C(=O)OC5)CC3)cc2)C1` (stereo not drawn) [Compound 30], for which the inhibition at 0.001 µM lay in the range of 30 to 60%, the inhibition at 0.01 µM lay in the range of 60 to 90% and the inhibition at 0.1 µM was over 90%.

With `C=CC(=O)N1CC2(C1)CN(C(CC1CC1)c1ccc(C3(Nc4ncc5c(n4)N(C(C)C)C(=O)OC5)CC3)cc1)C2` (stereo not drawn) [Compound 31], the inhibition at 0.001 µM is under 30%, the inhibition at 0.01 µM is 60 to 90% and the inhibition at 0.1 µM was over 90%.

Consider `C=CC(=O)NC1CCN(C(CC2CC2)c2ccc(C3(Nc4ncc5c(n4)N(C(C)C)C(=O)OC5)CC3)cc2)CC1` (stereo not drawn) [Compound 32], for which the inhibition at 0.001 µM lay in the range of 30 to 60%, the inhibition at 0.01 µM is 30 to 60% and the inhibition at 0.1 µM is over 90%.

On to `C=CC(=O)N1CC2(C1)CN([C@@H](CC)c1ccc([C@H](C)Nc3ncc4c(n3)N(CC)C(=O)OC4)cc1)C2` [Compound 36-1], for which the inhibition at 0.001 µM was 60 to 90%, the inhibition at 0.01 µM is over 90% and the inhibition at 0.1 µM was over 90%.

Consider `C=CC(=O)N1CC2(CC([C@H](CC)c3ccc(CNc4ncc5c(n4)N(CC)C(=O)OC5)cc3)C2)C1` [Compound 36-2], for which the “Inhibition rate of compounds on 2-HG in the supernatant of U87-IDH R132C cells, 1 nM” value is reported as “B (B represents an inhibition rate greater than 60% but less than or equal to 90%)”; the “Inhibition rate of compounds on 2-HG in the supernatant of U87-IDH R132C cells, 10 nM” value is listed as “B (B represents an inhibition rate greater than 60% but less than or equal to 90%)”; the “Inhibition rate of compounds on 2-HG in the supernatant of U87-IDH R132C cells, 100 nM” value is recorded as “A (A represents an inhibition rate greater than 90%)”.

`C=CC(=O)N1CC2(C1)CN(C(CC)c1ccc([C@H](C)Nc3ncc4c(n3)N(CC)C(=O)OC4)cc1)C2` (stereo partly drawn) [Compound 36]: the inhibition at 0.001 µM is 60 to 90%, the inhibition at 0.01 µM was over 90% and the inhibition at 0.1 µM was over 90%.

On to `C=CC(=O)N1CC2(C1)CN(C(CC(C)C)c1ccc([C@H](C)Nc3ncc4c(n3)N(CC)C(=O)OC4)cc1)C2` (stereo partly drawn) [Compound 41], for which the inhibition at 0.001 µM fell in the range of 30 to 60%, the inhibition at 0.01 µM was over 90% and the inhibition at 0.1 µM was over 90%.

`C=CC(=O)N1CC2(C1)CN(C(CC)c1ccc([C@H](C)Nc3ncc4c(n3)N(C(C)C)C(=O)OC4)cc1)C2` (stereo partly drawn) [Compound 46]: the inhibition at 0.001 µM lay in the range of 60 to 90%, the inhibition at 0.01 µM was over 90% and the inhibition at 0.1 µM is over 90%.

Turning to `C=CC(=O)N1CC2(C1)CN(C(CC(C)C)c1ccc([C@H](C)Nc3ncc4c(n3)N(C(C)C)C(=O)OC4)cc1)C2` (stereo partly drawn) [Compound 47], the inhibition at 0.001 µM was 60 to 90%, the inhibition at 0.01 µM is over 90% and the inhibition at 0.1 µM was over 90%.

On to `C=CC(=O)N1CC2(C1)CN(C(CC1CC1)c1ccc([C@H](C)Nc3ncc4c(n3)N(CCC)C(=O)OC4)cc1)C2` (stereo partly drawn) [Compound 53], for which the inhibition at 0.001 µM was in the range of 30 to 60%, the inhibition at 0.01 µM was 60 to 90% and the inhibition at 0.1 µM is over 90%.

`C=CC(=O)N1CC2(C1)CN(C(CC1CC1)c1ccc([C@H](C)Nc3ncc4c(n3)N(CC(C)C)C(=O)OC4)cc1)C2` (stereo partly drawn) [Compound 54]: the inhibition at 0.001 µM was 60 to 90%, the inhibition at 0.01 µM fell in the range of 60 to 90% and the inhibition at 0.1 µM was over 90%.

With `C=CC(=O)N1CC2(C1)CN(C(CC(C)(C)C)c1ccc([C@H](C)Nc3ncc4c(n3)N(CC)C(=O)OC4)cc1)C2` (stereo partly drawn) [Compound 59], the inhibition at 0.001 µM fell in the range of 30 to 60%, the inhibition at 0.01 µM lay in the range of 60 to 90% and the inhibition at 0.1 µM is over 90%.

With `C=CC(=O)N1CC2(C1)CN(C(CC1CCC1)c1ccc([C@H](C)Nc3ncc4c(n3)N(CC)C(=O)OC4)cc1)C2` (stereo partly drawn) [Compound 63], the inhibition at 0.001 µM was 30 to 60%, the inhibition at 0.01 µM is over 90% and the inhibition at 0.1 µM is over 90%.

In the case of `C=CC(=O)N1CC2(C1)CN(C(CC1(C)CC1)c1ccc([C@H](C)Nc3ncc4c(n3)N(CC)C(=O)OC4)cc1)C2` (stereo partly drawn) [Compound 65], the inhibition at 0.001 µM lay within 30 to 60%, the inhibition at 0.01 µM is over 90% and the inhibition at 0.1 µM was over 90%.

As for `C=CC(=O)N1CC2(C1)CN([C@@H](CC13CC(C1)C3)c1ccc([C@H](C)Nc3ncc4c(n3)N(CC)C(=O)OC4)cc1)C2` [Compound 66-1], the inhibition at 0.001 µM was 60 to 90%, the inhibition at 0.01 µM was over 90% and the inhibition at 0.1 µM is over 90%.

Take `C=CC(=O)N1CC2(C1)CN([C@H](CC13CC(C1)C3)c1ccc([C@H](C)Nc3ncc4c(n3)N(CC)C(=O)OC4)cc1)C2` [Compound 66-2]: the inhibition at 0.001 µM is 30 to 60%, the inhibition at 0.01 µM is 60 to 90% and the inhibition at 0.1 µM was over 90%.

For the molecule `C=CC(=O)N1CC2(C1)CN(C(CC13CC(C1)C3)c1ccc([C@H](C)Nc3ncc4c(n3)N(CC)C(=O)OC4)cc1)C2` (stereo partly drawn) [Compound 66], the inhibition at 0.001 µM fell in the range of 60 to 90%, the inhibition at 0.01 µM is over 90% and the inhibition at 0.1 µM was over 90%.

For `C=CC(=O)N1CCN(C(CC2(C)CC2)c2ccc([C@H](C)Nc3ncc4c(n3)N(CC)C(=O)NC4)cc2)CC1` (stereo partly drawn) [Compound 69], the inhibition at 0.001 µM is 30 to 60%, the inhibition at 0.01 µM was over 90% and the inhibition at 0.1 µM is over 90%.

In the case of `C=CC(=O)N1CCN([C@@H](CC23CC(C2)C3)c2ccc([C@H](C)Nc3ncc4c(n3)N(CC)C(=O)NC4)cc2)CC1` [Compound 70-1], the inhibition at 0.001 µM lay within 60 to 90%, the inhibition at 0.01 µM is over 90% and the inhibition at 0.1 µM is over 90%.
